Read-outs that look alike come from different tables or passages of the source.
Tests used:
Format in all cases: binding, sheep
[1] = system: Antibody to Immunogen I; conditions: Cross-reactants at 100 ng/ml; Antibody to Immunogen I
Procedure: (§1) An aqueous solution of each immunogen was formulated with Freund's Complete Adjuvant (FCA) to form an emulsion consisting of 2mg/ml* immunogen in 50% (v/v) FCA. Three sheep were immunised with this emulsion (1° immunisation), 0.25ml being intramuscularly injected at each of four sites in the flank of each animal. Subsequent immunizations (boosts) contained 1mg/ml* immunogen. All boosts were emulsified in 50% (v/v) Freund's Incomplete Adjuvant (FIA) and were administered in the same manner as the 1° immunisation, at monthly intervals. Blood sampling took place 7 to 14 days after each boost. *The general procedure for immunogen administration is outlined above, however, it was necessary to deviate from this protocol in some cases, due to reduced immunogen concentrations (Immunogens II, IV, VII and VIII) and/or amount available (Immunogen VIII). Any deviations from the protocol described are outlined in Table 1A below and highlighted in bold. Table 1A: Amount and volume of immunogens administered for primary and subsequent boosts
(§2) The wells of an enhanced binding 96 well polystyrene microtiter plate were coated with IgG fraction of antiserum raised to Immunogen I or II, diluted in 10mM Tris, pH8.5 (125µl/well). The appropriate antibody coating dilution was determined using standard ELISA checkerboard techniques. The plate was incubated overnight at 4°C, washed 4 times over 10 minutes with Tris buffered saline containing Tween 20 (TBST) and tapped dry. Standard solutions (JWH-018 for Immunogens I and II) were applied at 0, 0.625, 1.25, 2.5, 5, 10, 20 and 40ng/ml and 50µl of each was added to the appropriate wells. 75µl of conjugate (appropriate hapten-HRP) diluted in Tris buffer (pH 7.2) containing EDTA, D-mannitol, sucrose, thimerosal and BSA, was added to each of the wells. The appropriate dilution of conjugate was also determined using standard ELISA checkerboard techniques. The plate was incubated at 25°C for 1 hour. Excess unbound conjugate was removed by washing 6 times over a 10 minute period with TBST. 125µl of tetramethylbenzidine (TMB) substrate solution was added to each well of the plate that was then incubated for 20 minutes in the dark at room temperature. The reaction was terminated by addition of 125µl 0.2M H2SO4 to each well. The absorbance was then measured at 450nm using a microtiter plate reader. The data are inputted to a computer program called 'KC Junior'. It is a 4 parameter fit curve and allow the calculatation of concentrations between the standard runs. This program is used to calculate the IC50s by dividing the 0ng/ml OD value by 2 and obtaining the concentration value from the curve for this OD.
In a similar manner to that described above, the wells of a 96-well microtiter plate were coated with the IgG fraction of the antiserum raised to Immunogens I or II. Standard solutions (JWH-018 for Immunogen I and II) were applied at 0, 0.625, 1.25, 2.5, 5, 10, 20 and 40ng/ml and conjugate was employed as detection reagent.
(§3) The data set our in Tables 3 and 4 are generated using antibodies raised against the indicated Immunogens in a competitive binding assay with the indicated tracers, using the indicated standards: Table 2
(§4) A450 = absorbance at 450nm B = absorbance at 450nm at xng/ml standard concentration B0 = absorbance at 450nm at 0ng/ml standard concentration IC50 = standard concentration which produces 50% B/B0
(§5) In order to determine the specificity of the competitive ELISAs, standard solutions of a range of structurally similar synthetic cannabinoids and their metabolites were prepared in TBST. Using the calibration curves generated and employing a single level of cross reactants, these were used to determine the cross-reactivity of each immunoassay with these substances. […]

[2] = system: Antibody to Immunogen IV; conditions: Cross-reactants at 100 ng/ml; Antibody to Immunogen IV
Procedure: as §1, §2
(§6) In a similar manner to that described above, the wells of a 96-well microtiter plate were coated with the IgG fraction of the antiserum raised to Immunogens IV, VII or VIII. Standard solutions (JWH-018 for Immunogens IV and VIII, JWH-015 for Immunogen VII) were prepared in TBST at 0, 1.25, 2.5, 5, 10, 20, 40 and 80ng/ml and conjugate was employed as detection reagent.
as §3, §4, §5

[3] = system: Antibody to Immunogen VIII; conditions: Cross-reactants at 100 ng/ml; Antibody to Immunogen VIII
Procedure: as §1, §2, §6, §3, §4, §5

[4] = system: Antibody to Immunogen VII
Procedure: as §1, §2, §6, §3, §4, §5

[5] = system: Antibody to Immunogen II; experiment: Competitive ELISA (Example 36), antibody RS1833B12, tracer ESC4555/LK959, standard JWH-018; conditions: Cross-reactants at 100 ng/ml; Antibody to Immunogen II
Procedure: as §1
as §2, with “The” for “The wells of an enhanced binding 96 well polystyrene microtiter plate were coated with IgG fraction of antiserum raised to Immunogen I or II, diluted in 10mM Tris, pH8.5 (125µl/well). The”, “Standard solutions (JWH-018 for Immunogens I and II) were applied at 0, 0.625, 1.25, 2.5, 5, 10, 20 and 40ng/ml and 50µl of each was added to the appropriate wells.” left out, “runs.” for “runs. This program is used to calculate the IC50s by dividing the 0ng/ml OD value by 2 and obtaining the concentration value from the curve for this OD.”
In a similar manner to that described above, the wells of a 96-well microtiter plate were coated with the IgG fraction of the antiserum raised to Immunogens I or II.
as §3
Using the calibration curves generated and employing a single level of cross reactants, these were used to determine the cross-reactivity of each immunoassay with these substances. These are the standards used for the IC50 and cross-reactivity data generation • Immunogen I - JWH-018 • Immunogen II - JWH-018 • Immunogen IV - JWH-018 • Immunogen VII - JWH-015 • Immunogen VIII - JWH-018 Table 4: Cross reactivity of the competitive ELISAs for synthetic cannabinoids and their metabolites

[6] = Cross-reactants at 100 ng/ml, Antibody to Immunogen VII

SMILES	%B/B0 [1] [%]	%B/B0 [2] [%]	%B/B0 [3] [%]	%B/B0 [4, 6] [%]	%B/B0 [5] [%]	%B/B0 ([4]; JWH-015 standard 1.25 ng/ml) [%]	%B/B0 ([4]; JWH-015 standard 2.5 ng/ml) [%]	%B/B0 ([4]; JWH-015 standard 5 ng/ml) [%]	%B/B0 ([4]; JWH-015 standard 10 ng/ml) [%]	%B/B0 ([4]; JWH-015 standard 20 ng/ml) [%]	%B/B0 ([4]; JWH-015 standard 40 ng/ml) [%]	%B/B0 ([4]; JWH-015 standard 80 ng/ml) [%]	IC50 ([4]; Table 3c standard curve, standard concentration which produces 50% B/B0) [ng/mL]
CCCCCn1cc(C(=O)c2ccc(C)c3ccccc23)c2ccccc21 [JWH-122]	62.98	3.94	14.43	89.37	44.55								
CCCCCn1c(C)c(C(=O)c2cccc3ccccc23)c2ccccc21 [JWH-007]	32.96	60.63	61.76	27.77	66.06								
CCCCCn1cc(C(=O)c2cccc3ccccc23)c2cccc(O)c21 [JWH-018 7-hydroxyindole metabolite]	6.72	93.31	94.46	68.53	34.79								
CCCCn1c(C)c(C(=O)c2cccc3ccccc23)c2ccccc21 [JWH-016]	20.71	91.14	75.24	19.31	68.73								
CCCCCn1cc(C(=O)c2cccc3c(OC)cccc23)c2ccccc21 [JWH-081 5-methoxynaphthyl isomer]	18.51	6.24	26.56	94.16	60.90								
CCCCCCn1cc(C(=O)c2cccc3ccccc23)c2ccccc21 [JWH-019]	7.22	21.96	74.50	70.05	15.42								
CCCCn1cc(C(=O)c2cccc3ccccc23)c2cc(O)ccc21 [JWH-073 5-hydroxyindole metabolite]	7.34	84.06	90.70	75.11	20.73								
CCCC(C)n1cc(C(=O)c2cccc3ccccc23)c2ccccc21 (single isomer, unassigned) [JWH-018 N-(1-methylbutyl) isomer]	12.42	73.49	63.22	67.71	51.92								
O=C(c1cccc2ccccc12)c1cn(CCN2CCOCC2)c2cccc(O)c12 [JWH-200 4-hydroxyindole metabolite]	44.97	87.88	91.82	91.15	78.17								
O=C(c1cccc2ccccc12)c1cn(CCN2CCOCC2)c2cc(O)ccc12 [JWH-200 6-hydroxyindole metabolite]	7.27	94.41	83.20	65.52	61.65								
CCCCCn1cc(C(=O)c2ccccc2OC)c2ccccc21 [RCS-4 2-methoxy isomer]	29.14	15.28	29.32	87.27	42.74								
O=C(c1ccccc1I)c1cn(CCCCCF)c2ccccc12 [AM-694]	12.17	11.30	11.92	75.66	36.18								
CCC(C)Cn1cc(C(=O)c2cccc3ccccc23)c2ccccc21 (single isomer, unassigned) [JWH-018 N-(2-methylbutyl) isomer (JWH-073 2-methylbutyl homologue), JWH-018 N-(2-methylbutyl) isomer]	3.61	29.88	85.16	58.84	28.60								
O=C(c1ccc(Cl)c2ccccc12)c1cn(CCCCCO)c2ccccc12 [JWH-398 N-(5-hydroxypentyl) metabolite]	48.07	22.01	51.33	82.97	67.49								
CCCCn1cc(C(=O)c2c(C)ccc3ccccc23)c2ccccc21 [JWH 073 2-methylnaphthyl analog]	21.84	34.47	78.79	76.74	43.34								
Cc1ccc(C(=O)c2cn(CCCCCO)c3ccccc23)c2ccccc12 [JWH-122 N-(5-hydroxypentyl) metabolite]	42.80	25.72	48.67	83.65	71.76								
CCCn1c(C)c(C(=O)c2cccc3ccccc23)c2ccccc21 [JWH-015]	14.67	93.20	92.27	17.84	65.67	75	62	54	43	34	26	20	5.910
CCCCCn1cc(C(=O)c2cccc3cc(C)ccc23)c2ccccc21 [JWH 122 6-methylnaphthyl isomer]	12.55	8.12	20.46	86.66	39.17								
CCCCCn1cc(C(=O)c2cccc3c(Cl)cccc23)c2ccccc21 [JWH-398 5-chloronaphthyl isomer]	35.53	7.06	19.67	91.33	23.50								
CC(O)CCn1cc(C(=O)c2cccc3ccccc23)c2ccccc21 (stereo not drawn) [JWH-073 N-(3-hydroxybutyl) metabolite]	3.10	53.52	94.04	43.39	54.52								

Source: patent EP2698385A1, “Detection of synthetic cannabinoids” (priority 2012, dated 2014)
